# Results from patent publication US20250197641A1, “OPTICAL ABSORBENT” (priority 2023, published 2025).
# Legend:
# Assay type in all cases: physicochemical
# [1] = Solubility of the absorbent in methylene chloride; settings: room temperature (about 25° C.)
# Experimental: The solubility of the absorbent was evaluated. Solubility was determined based on the following criteria by evaluating the solubility of the absorbent in the solvent (MC, Methylene Chloride) at room temperature (about 25° C.).
# [2] = Transmittance of absorption membrane before and after reliability evaluation (Test Example 1); settings: for 425~465 nm Tave, Δ / 425~465 nm Tmin, Δ / 466~480 nm Tave, Δ / 466~480 nm Tmin, Δ / 480~560 nm Tave, Δ / λmax Tmax (transmittance at the absorption maximum), Δ: change before/after 85° C.; for 425~465 nm Tave, Δ / 425~465 nm Tmin, Δ / 466~480 nm Tave, Δ / 466~480 nm Tmin, Δ / 480~560 nm Tave, Δ / λmax Tmax (transmittance at the absorption maximum), Δ / 425~465 nm Tave, A / 425~465 nm Tmin, A / 466~480 nm Tave, A / 466~480 nm Tmin, A / 480~560 nm Tave, A: 85% RH, 120 hours; for 425~465 nm Tave, B / 425~465 nm Tmin, B / 466~480 nm Tave, B / 466~480 nm Tmin, B / 480~560 nm Tave, B: silicone resin membrane about 6 μm, before reliability evaluation; for 425~465 nm Tave, A / 425~465 nm Tmin, A / 466~480 nm Tave, A / 466~480 nm Tmin, A / 480~560 nm Tave, A: silicone resin membrane, after 85° C.
# Experimental: The transmittance spectrum was measured using a spectrophotometer (Manufacturer: Perkinelmer, Product Name: Lambda 750 Spectrophotometer) on a specimen obtained by cutting the measurement object (e.g., an absorption membrane) so that the width and height were 10 mm and 10 mm, respectively. The transmittance spectrum was measured for each wavelength according to the equipment manual. The specimen was placed on a straight line between a measuring beam of the spectrophotometer and a detector and the transmittance spectrum was confirmed by setting the incident angle of the measuring beam to 0°. The incident angle of 0° is a direction substantially parallel to the surface normal direction of the specimen. The average transmittance within a certain wavelength range in the transmittance spectrum is the result of measuring the transmittance at each wavelength while increasing the wavelength by 1 nm starting from the shortest wavelength in the wavelength range, and then calculating the arithmetic average of the measured transmittances. The maximum transmittance is the maximum transmittance among the transmittances measured while increasing the wavelength by 1 nm and the minimum transmittance is the minimum transmittance among the transmittances measured while increasing the wavelength by 1 nm. For example, the average transmittance within the wavelength range of 350 nm to 360 nm is the arithmetic mean of the transmittance measured at the wavelength of 350 nm, 351 nm, 352 nm, 353 nm, 354 nm, 355 nm, 356 nm, 357 nm, 358 nm, 359 nm, and 360 nm. The maximum transmittance within the wavelength range of 350 nm to 360 nm is the highest transmittance measured at wavelengths of 350 nm, 351 nm, 352 nm, 353 nm, 354 nm, 355 nm, 356 nm, 357 nm, 358 nm, 359 nm and 360 nm and the minimum transmittance within the wavelength range of 350 nm to 360 nm is the lowest transmittance among the transmittances measured at wavelengths of 350 nm, 351 nm, 352 nm, 353 nm, 354 nm, 355 nm, 356 nm, 357 nm, 358 nm, 359 nm, and 360 nm.
# A coating solution was prepared by mixing silicone resin (Dow Chemical, RSN-0217), absorbent, and solvent (cyclohexanone) as resin components. The mixing ratio of the resin component, absorbent, and solvent was set to be 69.3:0.99:29.7 in weight ratio (resin:absorbent:solvent).
# The coating solution was coated on a transparent substrate (a glass substrate manufactured by SCHOTT) and maintained at 140° C. for about 2 hours to form an absorption membrane with a thickness of about 6 μm.
# Tables 2 and 3 below summarize the transmittance of the absorption membrane before and after reliability evaluation in the ultraviolet and near-infrared regions. The reliability evaluation is an evaluation of maintaining the absorption membrane at 85° C. and under 85% relative humidity condition for 120 hours. In Table 2, B refers to the result before performing the reliability evaluation and A refers to the result after performing the reliability evaluation. Additionally, in Table 2, λmax means the transmittance at the absorption maximum.
# In Tables 2 and 3, Δ is the rate of change (%) of each characteristic before and after the reliability evaluation, calculated as 100×[…]/B, where […], B is the value indicated by B in Table 2. In Table 2, Tmax refers to the highest transmittance within the corresponding wavelength region, Tave refers to the average transmittance within the corresponding wavelength region, and Tmin refers to the minimum transmittance within the corresponding wavelength region.
# [3] = Absorption spectra of absorption membrane before and after high temperature/high humidity evaluation (Test Example 2); settings: 85% relative humidity, 120 hours; for ΔA = 100×(Af−Ai)/Ai / Δλ = 100×(λf−λi)λi: 85° C.; for Af, transmittance at the absorption maximum wavelength / λf, absorption maximum wavelength: absorption membrane after 85° C.; for Ai, transmittance at the absorption maximum wavelength / λi, absorption maximum wavelength: absorption membrane before 85° C.
# Excerpt: FIGS. 4 to 6 are the absorption spectra of the absorption membranes prepared in Test Example 1 using the absorbents of Embodiments 1 to 3, respectively. FIGS. 7 to 9 are the absorption spectrum of the absorption membrane prepared in Test Example using the absorbents of Comparative Examples 1 to 3, respectively. In the FIGS., the spectra indicated before reliability is the result immediately after preparing the absorption membrane, and the spectra indicated after reliability is the result after high temperature/high humidity evaluation was performed on the absorption membrane. The high temperature/high humidity evaluation is an evaluation where the absorption membrane is maintained at a temperature of 85° C. under a relative humidity of 85% for 120 hours. In Tables 4 and 5, Af is the transmittance at the absorption maximum wavelength of the absorption membrane maintained at 85° C. under 85% relative humidity for 120 hours and λf is the absorption maximum wavelength for after case. Ai is the transmittance at the absorption maximum wavelength of the absorption membrane before being maintained at 85° C. under 85% relative humidity for 120 hours and λi is the absorption maximum wavelength for before case. In Tables 4 and 5, ΔA is a value calculated as 100×(Af−Ai)/Ai, and Δλ is a value calculated as 100×(λf−λi)λi.
# [4] = Absorption maximum measurement; settings: chloroform, about 10^-5 M
# Experimental: The maximum absorption was evaluated by a conventional method. Specifically, the sample was dissolved in chloroform solvent at a concentration of about 10^−5 M and then evaluated using measuring equipment (Agilent, Varian Cary 4000).
# [5] = Pyrolysis temperature (Td 5%) analysis by TGA; settings: 25-800° C., 10° C./min, N2
# Experimental: The Td 5% is a value obtained through TGA (Thermogravimetric Analysis) analysis. It is the value (Td 5%) at a weight loss of 5% confirmed under the conditions of a temperature range of 25° C. to 800° C., a temperature increase rate of 10° C./min, and a nitrogen (N2) atmosphere of 60 cm^3/min.
# Thermogravimetric Analysis (TGA) of the chemical compound was performed by using Scinco's TGA N-1000 equipment. The analysis was performed by using approximately 3 mg of sample (chemical compound) and the analysis was conducted under conditions of a temperature range of 25° C. to 800° C., a temperature increase rate of 10° C./min, and nitrogen (N2) atmosphere of 60 cm^3/min. The value at […] (Td 5%) was used as the Td decomposition temperature.
Compound,"425~465 nm Tave, Δ [2]","425~465 nm Tmin, Δ [2]","466~480 nm Tave, Δ [2]","466~480 nm Tmin, Δ [2]","480~560 nm Tave, Δ [2]","λmax Tmax (transmittance at the absorption maximum), Δ [2]","425~465 nm Tave, B [2]","425~465 nm Tmin, B [2]","466~480 nm Tave, B [2]","466~480 nm Tmin, B [2]","480~560 nm Tave, B [2]","425~465 nm Tave, A [2]","425~465 nm Tmin, A [2]","466~480 nm Tave, A [2]","466~480 nm Tmin, A [2]","480~560 nm Tave, A [2]",ΔA = 100×(Af−Ai)/Ai [3],Δλ = 100×(λf−λi)λi [3],"Af, transmittance at the absorption maximum wavelength [3]","λf, absorption maximum wavelength [3]",also measured
CCCCN1\C(=C/C=C/C=C/C=C/C2=[N+](CCCC)c3ccc4ccccc4c3C2(C)C)C(C)(C)c2c1ccc1ccccc21 [Comparative Example 2],0%,−0.2%,0.1%,−0.1%,−0.3%,12.8%,89.6%,88.9%,90.2%,89.8%,91.2%,89.6%,88.7%,90.2%,89.7%,90.9%,27.1%,13%,59.8%,785 nm,"Solubility [1]: A (When solubility is 1 mass % or more); Ai, transmittance at the absorption maximum wavelength [3]: 47.1%; λi, absorption maximum wavelength [3]: 784 nm; Maximum Absorption Wavelength [4]: 801 nm; Td 5% [5]: 211 °C"
CCCCN1\C(=C/C=C/C=C/C=C/C2=[N+](CCCC)c3ccccc3C2(C)C)C(C)(C)c2ccccc21 [Comparative Example 1],0.2%,1.0%,−0.6%,−0.7%,−0.3%,14.7%,88.7%,86.5%,90.1%,89.8%,90.1%,88.9%,87.5%,89.5%,89.1%,89.8%,69.0%,−13%,36.0%,747 nm,"Solubility [1]: A (When solubility is 1 mass % or more); Ai, transmittance at the absorption maximum wavelength [3]: 21.3%; λi, absorption maximum wavelength [3]: 748 nm; Maximum Absorption Wavelength [4]: 761 nm; Td 5% [5]: 215 °C"
CC1(C)C(/C=C/C=C/C=C/C=C2\N(C[Si](C)(C)C)c3ccc4ccccc4c3C2(C)C)=[N+](C[Si](C)(C)C)c2ccc3ccccc3c21 [Embodiment 2],0.1%,0.1%,0%,0.1%,0%,1.4%,89.5%,88.6%,90.3%,89.8%,91.3%,89.5%,88.7%,90.3%,89.8%,91.3%,4.2%,0%,34.9%,790 nm,"Ai, transmittance at the absorption maximum wavelength [3]: 33.5%; λi, absorption maximum wavelength [3]: 790 nm; Maximum Absorption Wavelength [4]: 803 nm; Td 5% [5]: 230 °C"
CC1(C)C(/C=C/C2=C(Cl)C(=C/C=C3\N(C[Si](C)(C)C)c4ccccc4C3(C)C)/CC2)=[N+](C[Si](C)(C)C)c2ccccc21 [Embodiment 3],0.1%,0.1%,0.1%,0.1%,0. %,0.8%,87.8%,86.8%,89.4%,88.1%,91%,87.9%,87%,89.5%,88.2%,91%,6.7%,0%,12.3%,823 nm,"Ai, transmittance at the absorption maximum wavelength [3]: 11.5%; λi, absorption maximum wavelength [3]: 82. nm; Maximum Absorption Wavelength [4]: 817 nm; Td 5% [5]: 216 °C"
CC1(C)C(/C=C/C=C/C=C/C=C2\N(C[Si](C)(C)C)c3ccccc3C2(C)C)=[N+](C[Si](C)(C)C)c2ccccc21 [Embodiment 1],0%,0.1%,0%,0%,0%,0.8%,89.7%,87.9%,91.1%,90.7%,91.4%,89.8%,88%,91.1%,90.7%,91.4%,6.6%,0%,12.3%,758 nm,"Ai, transmittance at the absorption maximum wavelength [3]: 11.5%; λi, absorption maximum wavelength [3]: 758 nm; Maximum Absorption Wavelength [4]: 763 nm; Td 5% [5]: 231 °C"
